Experimental findings from article PMC10726354, “Design, Synthesis, and Biological Evaluation of Small-Molecule-Based Radioligands with Improved Pharmacokinetic Properties for Imaging of Programmed Death Ligand 1” (Journal of Medicinal Chemistry, 2023) are described below.

Values joined by “and” are separate entries in the source; they are usually repeats but may differ in a detail not shown here. Equal entries are not always repeated.

A word on the Kd: it is the constant that tells how readily two partners part at equilibrium.

The nature of data set [1]: Kinetic stability in PBS buffer (pH 7.4), radio-HPLC. Particulars: room temperature, radio-HPLC at 1, 24 and 48 h. It counts as physicochemical. As to the method:
The kinetic stability of all ^64Cu-labeled ligands was investigated in PBS buffer solution (pH 7.4) by incubation at room temperature and monitoring with radio-HPLC up to 48 h. […] During the time course, no changes in peak number/shape and retention time were observed, proving the stability of the compounds. […] At the 48 h time point, however, a shoulder appears with a slightly higher retention time (∼7.0 min), indicating minor decomposition (>94% intact radiotracer).
The corresponding radiotracer was labeled with approximately 500 MBq of ^64Cu in 50 μL of HEPES solution (adjusted to pH 4.5), as described above. After successful labeling, 450 μL of PBS solution (pH 7.4) was added, and the incubation was performed (room temperature) at 300 rpm. At each time point (1, 24, and 48 h), an aliquot was withdrawn and injected into the radio-HPLC (PerkinElmer, Massachusetts, United States system C or D, Supporting Information). Evaluation and graphical plotting were performed with OriginPro 9.0.

Data set [2] addresses T1, PD-L1 (Homo sapiens, UniProt Q9NZQ7).
T1 construct: expressed in transfected cells; host or cells: PC3 cells (human prostate carcinoma), stably transduced
In words: Real-time radioligand binding (LigandTracer) on PC3 PD-L1 cells. Conditions: for Kd: real-time binding. Here is the method:
Real-time radioligand binding using the ligand tracer platform was performed, similar to our previously reported tracer candidates. As we aimed at reducing the albumin binding of the herein presented compounds, we performed measurements in the presence or absence of a mouse physiological concentration of BSA (2.5 g/dL).
For real-time binding to assess kinetics (association rate constant ka and dissociation rate constant kd) and dissociation constant (KD), LigandTracer (Yellow, Ridgeview Instruments AB, Sweden) was employed. Approximately 1.2 × 10^6 cells (in 3 mL medium) were seeded to one side of a Petri dish (Nunc) 1 day prior to experiments as described before.[45] Binding was then performed at room temperature (using CO2-independent medium, Gibco #18045088, Thermo Fisher Germany) with or without BSA (2.5%). First, association was determined by incubation with two concentrations (10 and 40 nM, 90 min each) of the ^64Cu-labeled PD-L1 ligands. Dissociation was then assessed by replacement with fresh medium for at least 2 h. Data were acquired in decay-corrected counts per second (CPS), and binding data were then evaluated using TraceDrawer (1.9.2, Ridgeview Instruments AB, Sweden). Traces were inspected for spikes and irregularities and then normalized to their own baseline (=0%) and highest value (=100%). Data were then fitted using a one-to-one interaction, accounting for the bulk effect.

The nature of data set [3]: Radiotracer production data: stability of the product to in vivo experiments. It counts as physicochemical.
Data set [4] deals with PC3 PD-L1-overexpressing tumor. In words: Small-animal PET, uptake in PD-L1-overexpressing tumor. Particulars: for SUVmax PC3 PD-L1 overexpressing tumor: tracer only; for SUVmax PC3 PD-L1 overexpressing tumor +block: blocker i.v. before tracer: Cu-1 100 nmol 1, Cu-2 100 nmol 2, Cu-3 1000 nmol 4, Cu-4 500 nmol 4, Cu-6 250 nmol 1 (~5 min prior), Cu-5 100 nmol 5 (~30 min prior). Here is the method:
Changes are reported as % change of the SUVmax of the PD-L1 expressing over the respective value of the mock tumor. Similarly, the effect of blocking is reported as % change of the SUVmax of the animal injected with cold compound over that of the animal that received tracer only.
Animal experiments were performed in accordance with the guidelines of the German Regulations for Animal Welfare, approved by the Saxonian Ethical Committee for Animal Experiments (reference number DD24.1-5131/449/49). Male athymic NMRI-nude mice (Rj: NMRI-Foxn1^nu/nu, Janvier Laboratories, Le Genest-Saint-Isle, France) between 8 and 22 weeks of age were used. Under general anesthesia, [∼10% desflurane (Baxter, Deerfield, IL, USA) in 30 vol % oxygen + air] and warming, the animals were subcutaneously injected with 3–5 × 10^6 PC3-PD-L1 and PC3-mock cells [in 50 μL PBS +50 μL Matrigel (Corning, Glendale, USA)] into the right and left thigh, respectively. Tumor growth was monitored three times a week by caliper measurements, and mice with tumor sizes above 7 mm were included in the experiments.
For PET studies, general anesthesia was induced as described above. PET and X-ray computed tomography (CT) were performed in a dedicated small animal nanoScan PET/CT scanner, with four animals imaged simultaneously (Mediso, Budapest, Hungary). CT images were employed for attenuation correction and anatomical referencing. Animals received three individual scans corresponding to 0–2 h (dynamic) and 4.5 and 24 h (static) postinjection.
PD-L1 radiotracer candidates (in 300 μL sterile 0.9% NaCl/HEPES buffer, pH 6–7, between 7 and 12 MBq, molar activities > 12 GBq/μmol) were delivered over 30 s i.v. (lateral tail vein) and PET acquisition started simultaneously. For blocking condition, a defined quantity of compound (the same unlabeled compound, one from the same series or BMS-1166) was diluted in sterile saline and injected i.v. approximately 5 min prior to the radiotracer. Animals not subjected to blocking were injected with vehicle at the same time.
Three-dimensional list mode data were binned using the 400–600 keV energy window and sorted into 36 time frames (15 × 10 s, 5 × 30 s, 5 × 60 s, 4 × 300 s, 3 × 600 s, 4 × 900 s). Time frames were reconstructed using the Tera-TomoTM 3D algorithm applying a voxel size of 0.4 mm and corrections for decay, scatter, and attenuation.
Three-dimensional volumes of interest were delineated applying fixed thresholding at 35% of the measured maximum intensity. Standardized uptake values (SUV = [MBq detected activity/mL tissue]/[MBq injected activity/g body weight], […]) were determined in selected volumes of interest, among these PD-L1 and mock tumors.
14. In vivo: PET- SUV data
Standardized uptake values (SUVmax)
Supplementary table 1: In vivo standardized uptake values (SUVmax ± standard deviation) of 64Cu-labeled third series compounds [64Cu]Cu-1-6 at 1.5 (1–2), 4.5 (4–5) and 24.5 (24–25) hours
post injection (p.i.). Compounds used for blocking are described for each tracer and were intravenously injected in sterile saline at stated time before the radiotracer. Animals designated for
tracer-only received matched type and volume of vehicle at the same time.

The mark [5] stands for this setting: medium only (no BSA), n = 2, mean ± S.D.
Setting [6] is: medium only (no BSA), n = 2, mean ± S.D., room temperature.
The mark [7] stands for this setting: 1–2 h (1.5 h) p.i., blocker: Cu-3 1000 nmol 4, Cu-4 500/1000 nmol 4, Cu-5 100 nmol 5, Cu-6 250 nmol BMS-1166.
[8] abbreviates: 4–5 h (4.5 h) p.i., blocker: Cu-3 1000 nmol 4, Cu-4 500/1000 nmol 4, Cu-5 100 nmol 5, Cu-6 250 nmol BMS-1166.
Setting [9] is: 24–25 h (24.5 h) p.i., blocker: Cu-1, Cu-2 100 nmol unlabeled compound, Cu-3 1000 nmol 4, Cu-4 500/1000 nmol 4, Cu-5 100 nmol 5, Cu-6 250 nmol BMS-1166.

T1 sequence (Q9NZQ7 19-290): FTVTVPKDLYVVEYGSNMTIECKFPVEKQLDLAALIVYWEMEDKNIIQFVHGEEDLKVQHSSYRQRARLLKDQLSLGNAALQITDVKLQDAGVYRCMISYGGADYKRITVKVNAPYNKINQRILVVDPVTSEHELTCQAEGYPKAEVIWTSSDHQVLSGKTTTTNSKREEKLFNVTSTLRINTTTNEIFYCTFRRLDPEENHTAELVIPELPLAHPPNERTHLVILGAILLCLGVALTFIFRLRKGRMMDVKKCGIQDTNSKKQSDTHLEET

`Cc1c(COc2cc(OCc3cncc(S(C)(=O)=O)c3)c(CN[C@@H](CS(=O)(=O)O)C(=O)NCCS(=O)(=O)O)cc2Cl)cccc1-c1cccc(OCc2cn(CCCN3CCN(C(=O)[C@H](CS(=O)(=O)O)NC(=O)CC[C@H](C(=O)O)N4CCN(CC(=O)O)CCN(CC(=O)O)CC4)CC3)nn2)c1C.[64Cu+2]` [[^64Cu]Cu-3]: the “intact radioligand in PBS (pH 7.4)” value in data set [1] is above 99%. For the same compound, the “Bmax [normalized (%)]” value in data set [2] (medium + 2.5% BSA, n = 1) was found to be 46.6%; in data set [2] (setting [5]), 95.9 ± 6.49%. The “ka (association rate constant)” value was 2970 M/s in data set [2] (medium + 2.5% BSA, n = 1) and “(6.59 ± 0.50) × 10^3 (M s)^−1” in data set [2] (setting [6]). The Kd in data set [2] (medium + 2.5% BSA, n = 1) is 54.3 nM; in data set [2] (setting [5]), 21 nM and 20.9 nM. For the same compound, the “Stability of the product to in vivo experiments” value in data set [3] is on record as above 99%. Also, the “blocking effect: % change of SUVmax in PD-L1 tumor vs tracer-only” value in data set [4] (setting [7]) was −71%; in data set [4] (setting [8]), −73%; in data set [4] (setting [9]) it was −52%. The “% change of SUVmax of the PD-L1 expressing tumor over the mock tumor” value is on record as 311% in data set [4] (1–2 h p.i.), 372% in data set [4] (4–5 h p.i.) and 93% in data set [4] (24–25 h p.i.). The “SUVmax PC3 PD-L1 overexpressing tumor” value in data set [4] (1.5 (1–2) hours p.i.) was determined as 3.5; in data set [4] (1.5 (1–2) hours p.i., listed as [64Cu]Cu-3), 3.5 ± 0.2; in data set [4] (4.5 (4–5) hours p.i.), 2.6 ± 0.1; in data set [4] (24.5 (24–25) hours p.i.), 1.35; in data set [4] (24.5 (24–25) hours p.i., listed as [64Cu]Cu-3), 1.35 ± 0.15. Also, the “SUVmax PC3 PD-L1 overexpressing tumor +block” value in data set [4] (1.5 (1–2) hours p.i.) came to 1.0 ± 0.1; in data set [4] (4.5 (4–5) hours p.i.) it was 0.7 ± 0.3; in data set [4] (24.5 (24–25) hours p.i.), 0.65 ± 0.05. For the same compound, in data set [4] (any time point, Cu-3: 750 nmol BMS-1166 intraperitoneally 60 min prior, Cu-6: 250 nmol BMS-1166 5 min before), the “blocking effect of BMS-1166 on SUVmax / tumor uptake” value is given as “no effect”.

On to `Cc1c(COc2cc(OCc3cncc(S(C)(=O)=O)c3)c(CN[C@@H](CS(=O)(=O)O)C(=O)NCCP(=O)(O)O)cc2Cl)cccc1-c1cccc(OCc2cn(CCCN3CCN(C(=O)[C@H](CS(=O)(=O)O)NC(=O)CC[C@H](C(=O)O)N4CCN(CC(=O)O)CCN(CC(=O)O)CC4)CC3)nn2)c1C.[64Cu+2]` [[^64Cu]Cu-5], for which, in data set [1], the “intact radioligand in PBS (pH 7.4)” value was above 99%. Also, the “fold change of real-time binding affinity in presence vs absence of BSA” value in data set [2] (in either direction) is reported as at most 2 fold. For the same compound, the “Bmax [normalized (%)]” value is given as 219% in data set [2] (medium + 2.5% BSA, n = 1) and 446 ± 274% in data set [2] (setting [5]). Further, the “ka (association rate constant)” value in data set [2] (medium + 2.5% BSA, n = 1) is 1130 M/s; in data set [2] (setting [6]), “(1.14 ± 0.60) × 10^3 (M s)^−1”. Moreover, the dissociation constant (Kd) is 100 nM in data set [2] (medium + 2.5% BSA, n = 1) and 110 ± 53 nM in data set [2] (setting [5]). Moreover, the “Stability of the product to in vivo experiments” value in data set [3] is listed as above 99%. Also, the “blocking effect: % change of SUVmax in PD-L1 tumor vs tracer-only” value was −46% in data set [4] (setting [7]); −6% and −5% in data set [4] (setting [8]); “+29%” in data set [4] (setting [9]). Also, the “% change of SUVmax of the PD-L1 expressing tumor over the mock tumor” value in data set [4] (1–2 h p.i.) is reported as 306%; in data set [4] (4–5 h p.i.), “+59%”; in data set [4] (24–25 h p.i.), “+14%”. Also, the “SUVmax PC3 PD-L1 overexpressing tumor” value in data set [4] (1.5 (1–2) hours p.i.) came out at 3.25; in data set [4] (1.5 (1–2) hours p.i., listed as [64Cu]Cu-5), 3.25 ± 0.25; in data set [4] (4.5 (4–5) hours p.i.) it was 1.75; in data set [4] (4.5 (4–5) hours p.i., listed as [64Cu]Cu-5) it was 1.75 ± 0.15; in data set [4] (24.5 (24–25) hours p.i.), 1.2; in data set [4] (24.5 (24–25) hours p.i., listed as [64Cu]Cu-5) it was 1.2 ± 0.8. In addition, the “SUVmax PC3 PD-L1 overexpressing tumor +block” value in data set [4] (1.5 (1–2) hours p.i.) amounted to 1.75 ± 0.35; in data set [4] (4.5 (4–5) hours p.i.) it was 1.65 ± 0.15; in data set [4] (24.5 (24–25) hours p.i.), 1.55 ± 0.05.
